Experimental data reported in article PMC6973020, “Quinoline‐Conjugated Ruthenacarboranes: Toward Hybrid Drugs with a Dual Mode of Action” (Chemmedchem, 2019).

What was measured:
[1] = test system: LN229 cells; assay: DAPI staining, fluorescence microscopy, LN229; type: cell-based, human; details: LN229, 40 μM, 72 h
Experimental: (§1) Flow cytometry. For gaining better insights into the mechanisms of action of the ruthenium complexes, MCF‐7 and LN229 cells incubated with an IC50 dose of 3 or 4, were analyzed via flow cytometry. Several staining protocols were carried out in parallel, in independent experiments: i) AnnV/PI for the detection of apoptotic cell death, ii) AO for the detection of acidic vacuoles, iii) ApoStat for checking caspase activation, iv) CFSE for detecting interference with cellular proliferation, and v) DAPI for the detection of morphological signs of apoptosis. Untreated cells or cells treated only with BSA (control) were also measured, as reference for BSA‐free and BSA‐containing drug formulations, respectively. […] Channels FL1 (green emission), FL2 (orange emission) and/or FL3 (dark red emission) were used for fluorescence detection, according to the specific staining agent. Sideward Scatter (SSC) for MCF‐7 cells treated with 4 or BSA−4 was also analyzed, with respect to the control, for detection of shifts of cell granularity. […]
(§2) FCS, 2 mM L‐glutamine, 0.01% sodium pyruvate and antibiotics, at 37 °C in a humidified atmosphere with 5% CO2. […] Cells were counted and seeded in 96‐well plates and incubated overnight, as described above. […]
(§3) Staining Protocols for Flow Cytometric Analysis. […] Finally, cells were washed in PBS, resuspended in PBS (or AnnV‐binding buffer for AnnV/PI), and analysed. […]

[2] = test system: LN229 cells; assay: AnnV/PI double staining, flow cytometry, LN229; type: cell-based, human; details: LN229, 40 μM, 72 h
Experimental: as §1, §2, §3

[3] = test system: A375, B16 and MCF‐7 cell lines; assay: CV cell viability assay, summary for A375, B16 and MCF‐7; type: cell-based; details: range over the three cell lines, 72 h
Description: Thus, care must be taken when comparing their biological activities with those of our previous studies, even with the same cell line, because the covalent vs. non‐covalent combination of drugs might imply different mechanisms of action in the cell.44 Here, we studied the in vitro activity of ruthenacarborane 3, i. e. free acid, and its 8‐hydroxyquinolyl (4) and 4‐{(7‐chloroquinolin‐4‐yl)oxy}butanol‐1‐yl (5) esters, against a panel of cancer cell lines (B16 mouse melanoma, A375 human skin melanoma, MCF‐7 human breast adenocarcinoma, LN229 human glioblastoma, U251 human glioma). Human fibroblast cell line MRC‐5, murine microglial cell line BV‐2 as well as peritoneal exudate cells (Mph), were chosen as models for non‐malignant cells. […] Cells were exposed to 3–5 for 72 h, after which cell viability was determined via 3‐(4,5‐dimethylthiazol‐2‐yl)‐2,5‐diphenyltetrazolium bromide (MTT) and crystal violet (CV) assays, in parallel (Table 2). […]
Colorimetric assays for cellular viability. […] The absorbance was measured with an automated microplate reader at λmax 540 nm, with the reference λmax 670 nm. Untreated cells or cells treated only with BSA (control) were also measured, as reference for BSA‐free and BSA‐containing drug formulations, respectively. […] Cell viability is expressed as percentage (%) relative to control (untreated cultures).58 Experiments were run in three independent replicates. […]

Substance	morphological features of apoptosis (DAPI) [1]	early apoptotic (Ann+/PI−) cells ([2]; control 0.9 %) [%]	late apoptotic (Ann+/PI+) cells ([2]; control 7.4 %) [%]	IC50 [3] [µM]
closo ‐[3‐(η^6‐p‐Cymene)‐1‐(quinolin‐8‐yl‐acetate)‐3,1,2‐RuC2B9H10] [Compound 4]	several typical morphological features of apoptosis	9.0	35	
closo‐ [Compound 3, closo‐ [3‐(η^6‐p‐Cymene)‐1‐(CH2COOH)‐3,1,2‐RuC2B9H10]]				18 to 23
